These results are taken from ChEMBL document CHEMBL1201862, “PubChem BioAssay data set” (2004).

A short description of experiment [1]: microbe, parasite or virus in culture. The experiment is classed as functional. The conditions noted are these: Mycobacterium tuberculosis.
The nature of experiment [2]: Luminescence Cell-Based Dose Response to Identify Activators of 5'UTR Stem-Loop Driven Prion Protein mRNA Translation in H4-C Neuroglioblastoma Cells. [Related pubchem assays: 1829 (Project Summary), 1814 (Primary HTS)]. The experiment is classed as functional.
Another experiment addresses T1, Insulin-degrading enzyme (Homo sapiens, UniProt P14735).
T1 sequence (P14735 whole entry): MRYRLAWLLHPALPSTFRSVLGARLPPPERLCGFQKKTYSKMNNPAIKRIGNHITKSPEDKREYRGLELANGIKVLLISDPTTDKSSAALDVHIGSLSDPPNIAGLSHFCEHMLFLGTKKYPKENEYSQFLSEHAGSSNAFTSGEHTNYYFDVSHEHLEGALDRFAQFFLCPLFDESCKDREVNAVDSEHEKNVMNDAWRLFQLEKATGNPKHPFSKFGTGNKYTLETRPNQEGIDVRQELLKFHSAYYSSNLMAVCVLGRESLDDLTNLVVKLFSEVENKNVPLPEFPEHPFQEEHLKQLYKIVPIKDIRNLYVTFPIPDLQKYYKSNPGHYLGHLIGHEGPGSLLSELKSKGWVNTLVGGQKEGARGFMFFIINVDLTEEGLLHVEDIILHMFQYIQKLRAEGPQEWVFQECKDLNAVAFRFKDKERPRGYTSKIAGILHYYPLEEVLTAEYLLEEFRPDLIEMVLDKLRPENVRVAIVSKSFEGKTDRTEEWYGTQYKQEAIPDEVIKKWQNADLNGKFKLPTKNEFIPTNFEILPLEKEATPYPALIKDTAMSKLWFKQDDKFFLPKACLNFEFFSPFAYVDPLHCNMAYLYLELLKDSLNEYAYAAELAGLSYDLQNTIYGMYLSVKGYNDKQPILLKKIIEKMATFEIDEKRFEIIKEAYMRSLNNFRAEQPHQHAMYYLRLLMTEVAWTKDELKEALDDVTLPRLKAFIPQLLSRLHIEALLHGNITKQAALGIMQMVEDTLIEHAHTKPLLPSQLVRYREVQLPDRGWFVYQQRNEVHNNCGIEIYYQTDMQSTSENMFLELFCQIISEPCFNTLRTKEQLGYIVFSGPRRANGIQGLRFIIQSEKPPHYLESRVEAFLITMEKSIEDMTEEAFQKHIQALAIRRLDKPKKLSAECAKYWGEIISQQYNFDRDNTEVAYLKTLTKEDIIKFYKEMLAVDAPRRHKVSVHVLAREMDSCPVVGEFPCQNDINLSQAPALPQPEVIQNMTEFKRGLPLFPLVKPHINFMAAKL
In words: activators of endogenous IDE in HEK cells, dose response, cell-based, fluorescence polarization (AID 588439). The experiment is classed as functional.

In another experiment the test system is Streptococcus. Briefly: Group A Streptococcus viability loss, dose response, counter-screen for streptokinase expression inhibitor project, luminescence, BacTiterGlo (AID 1915).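 Note: potency for reduction of bacterial viability or growth.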 The class given is functional, organism-based.
In another experiment the target is Bcl-2-like protein 1 (Homo sapiens, UniProt Q07817). Briefly: BCL-XL inhibitors, dose response, selectivity assay for MCL1 inhibitor project, biochemical, fluorescence polarization, 1536-well (AID 2218).
Experiment [3] addresses Serine/threonine-protein kinase pim-2 (Homo sapiens, UniProt Q9P1W9). The class given is functional.
A further experiment has as its target Misshapen-like kinase 1 (Homo sapiens, UniProt Q8N4C8). The class given is functional.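 Note: kinome panel screen with MINK as the panel member.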
Experiment [4] addresses Tyrosine-protein kinase Fyn (Homo sapiens, UniProt P06241). The experiment is classed as functional.
The target in experiment [5] is Maternal embryonic leucine zipper kinase (Homo sapiens, UniProt Q14680). The experiment is classed as functional.
Maternal embryonic leucine zipper kinase, sequence (Q14680 whole entry): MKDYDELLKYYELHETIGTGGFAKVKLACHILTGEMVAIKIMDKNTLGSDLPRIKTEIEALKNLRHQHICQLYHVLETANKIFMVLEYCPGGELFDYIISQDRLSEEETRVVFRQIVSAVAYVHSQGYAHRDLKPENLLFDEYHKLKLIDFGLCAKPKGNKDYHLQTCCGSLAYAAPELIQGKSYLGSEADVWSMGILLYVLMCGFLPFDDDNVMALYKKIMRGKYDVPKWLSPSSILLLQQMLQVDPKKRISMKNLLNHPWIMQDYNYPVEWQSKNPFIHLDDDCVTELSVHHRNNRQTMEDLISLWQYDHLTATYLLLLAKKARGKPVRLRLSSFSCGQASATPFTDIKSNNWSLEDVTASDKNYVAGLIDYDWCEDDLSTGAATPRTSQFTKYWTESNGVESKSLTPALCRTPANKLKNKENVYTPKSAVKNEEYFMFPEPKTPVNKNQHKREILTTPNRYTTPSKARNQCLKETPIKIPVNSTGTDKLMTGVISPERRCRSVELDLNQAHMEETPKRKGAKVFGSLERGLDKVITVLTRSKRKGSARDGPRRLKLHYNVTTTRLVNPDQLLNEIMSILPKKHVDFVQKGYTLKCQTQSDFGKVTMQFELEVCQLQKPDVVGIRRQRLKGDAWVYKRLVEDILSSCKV
Experiment [6] addresses Serine/threonine-protein kinase 17A (Homo sapiens, UniProt Q9UEE5). The experiment is classed as functional.
Experiment [7] has as its target Serine/threonine-protein kinase DCLK1 (Homo sapiens, UniProt O15075). The class given is functional.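 Note: affinity for DCLK1 (listed as DCAMKL1) measured as one member of a kinome-wide kinase profiling panel.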
Experiment [8] addresses Dual specificity tyrosine-phosphorylation-regulated kinase 3 (Homo sapiens, UniProt O43781). The experiment is classed as functional.
Experiment [9] concerns the target Proto-oncogene tyrosine-protein kinase receptor Ret (Homo sapiens, UniProt P07949). The experiment is classed as functional.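 Note: measured within a kinome-wide profiling panel, RET as the panel member.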
Experiment [10] addresses Ribosomal protein S6 kinase beta-1 (Homo sapiens, UniProt P23443). The experiment is classed as functional.
The target in experiment [11] is Insulin-like growth factor 1 receptor (Homo sapiens, UniProt P08069). Briefly: Navigating the Kinome. Panel member name: IGF1R. The experiment is classed as functional.
The target of experiment [12] is BDNF/NT-3 growth factors receptor (Homo sapiens, UniProt Q16620). The experiment is classed as functional.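 Note: NTRK2 measured as one member of a broad kinome-wide kinase profiling panel.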
For experiment [13], the target named is Interleukin-1 receptor-associated kinase 1 (Homo sapiens, UniProt P51617). The experiment is classed as functional.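 Note: IRAK1 tested as one member of a kinome panel.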
Interleukin-1 receptor-associated kinase 1, sequence (P51617 whole entry): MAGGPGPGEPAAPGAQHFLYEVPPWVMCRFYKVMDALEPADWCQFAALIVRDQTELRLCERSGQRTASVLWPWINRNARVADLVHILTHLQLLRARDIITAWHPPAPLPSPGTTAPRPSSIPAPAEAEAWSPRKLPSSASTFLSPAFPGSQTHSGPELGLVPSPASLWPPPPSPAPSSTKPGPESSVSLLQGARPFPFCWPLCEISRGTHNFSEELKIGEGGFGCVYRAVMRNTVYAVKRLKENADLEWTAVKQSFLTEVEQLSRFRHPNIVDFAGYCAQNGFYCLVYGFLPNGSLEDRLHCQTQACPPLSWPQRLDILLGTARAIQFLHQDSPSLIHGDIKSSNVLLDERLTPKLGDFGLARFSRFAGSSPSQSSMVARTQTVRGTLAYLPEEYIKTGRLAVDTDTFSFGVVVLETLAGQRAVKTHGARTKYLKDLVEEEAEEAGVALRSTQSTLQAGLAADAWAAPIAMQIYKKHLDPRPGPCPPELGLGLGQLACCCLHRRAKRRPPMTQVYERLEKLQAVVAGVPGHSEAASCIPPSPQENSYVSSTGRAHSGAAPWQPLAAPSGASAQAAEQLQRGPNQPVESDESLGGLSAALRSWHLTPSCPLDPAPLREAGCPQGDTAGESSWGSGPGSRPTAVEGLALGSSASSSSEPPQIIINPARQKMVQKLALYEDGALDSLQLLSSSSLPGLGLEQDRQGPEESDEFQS
For the next experiment, the target named is SRSF protein kinase 1 (Homo sapiens, UniProt Q96SB4). The experiment is classed as functional.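 Note: measured as one member of a kinome-wide kinase profiling panel.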
SRSF protein kinase 1, sequence (Q96SB4 whole entry, canonical isoform): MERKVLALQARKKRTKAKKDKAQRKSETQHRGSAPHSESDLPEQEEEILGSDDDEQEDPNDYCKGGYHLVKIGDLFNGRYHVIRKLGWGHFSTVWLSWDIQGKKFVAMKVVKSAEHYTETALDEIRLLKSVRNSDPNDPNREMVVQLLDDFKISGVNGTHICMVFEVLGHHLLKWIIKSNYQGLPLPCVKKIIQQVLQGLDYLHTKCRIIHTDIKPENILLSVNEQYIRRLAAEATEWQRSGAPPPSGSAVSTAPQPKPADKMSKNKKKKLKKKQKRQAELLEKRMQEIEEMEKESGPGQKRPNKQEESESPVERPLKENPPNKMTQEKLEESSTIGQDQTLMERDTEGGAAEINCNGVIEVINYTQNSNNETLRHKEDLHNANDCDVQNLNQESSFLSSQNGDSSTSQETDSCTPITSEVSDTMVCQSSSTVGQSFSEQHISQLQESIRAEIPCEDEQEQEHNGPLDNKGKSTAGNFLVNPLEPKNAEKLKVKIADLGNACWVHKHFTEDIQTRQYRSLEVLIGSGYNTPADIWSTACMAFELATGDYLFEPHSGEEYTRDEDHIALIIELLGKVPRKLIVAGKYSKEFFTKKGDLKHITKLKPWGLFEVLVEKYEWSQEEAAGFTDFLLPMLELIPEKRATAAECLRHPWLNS
Experiment [14] addresses Casein kinase I isoform gamma-1 (Homo sapiens, UniProt Q9HCP0). The experiment is classed as functional.
In experiment [15] the target is Lymphokine-activated killer T-cell-originated protein kinase (Homo sapiens, UniProt Q96KB5). The class given is functional.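 Note: value comes from a kinase panel screen in which TOPK was one of the panel members.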
Lymphokine-activated killer T-cell-originated protein kinase, sequence (Q96KB5 whole entry): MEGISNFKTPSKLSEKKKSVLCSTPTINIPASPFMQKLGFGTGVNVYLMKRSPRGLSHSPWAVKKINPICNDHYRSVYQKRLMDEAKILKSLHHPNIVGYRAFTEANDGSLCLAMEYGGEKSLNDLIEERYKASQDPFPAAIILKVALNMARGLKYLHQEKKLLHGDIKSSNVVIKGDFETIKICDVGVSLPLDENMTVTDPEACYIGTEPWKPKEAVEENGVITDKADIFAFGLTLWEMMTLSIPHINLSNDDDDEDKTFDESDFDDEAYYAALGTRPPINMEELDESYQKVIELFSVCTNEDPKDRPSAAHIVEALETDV

Structures can show the parent of a compound that is named as a salt. Calls of active or inactive are those of the source.

Proto-oncogene tyrosine-protein kinase receptor Ret, sequence (P07949 whole entry): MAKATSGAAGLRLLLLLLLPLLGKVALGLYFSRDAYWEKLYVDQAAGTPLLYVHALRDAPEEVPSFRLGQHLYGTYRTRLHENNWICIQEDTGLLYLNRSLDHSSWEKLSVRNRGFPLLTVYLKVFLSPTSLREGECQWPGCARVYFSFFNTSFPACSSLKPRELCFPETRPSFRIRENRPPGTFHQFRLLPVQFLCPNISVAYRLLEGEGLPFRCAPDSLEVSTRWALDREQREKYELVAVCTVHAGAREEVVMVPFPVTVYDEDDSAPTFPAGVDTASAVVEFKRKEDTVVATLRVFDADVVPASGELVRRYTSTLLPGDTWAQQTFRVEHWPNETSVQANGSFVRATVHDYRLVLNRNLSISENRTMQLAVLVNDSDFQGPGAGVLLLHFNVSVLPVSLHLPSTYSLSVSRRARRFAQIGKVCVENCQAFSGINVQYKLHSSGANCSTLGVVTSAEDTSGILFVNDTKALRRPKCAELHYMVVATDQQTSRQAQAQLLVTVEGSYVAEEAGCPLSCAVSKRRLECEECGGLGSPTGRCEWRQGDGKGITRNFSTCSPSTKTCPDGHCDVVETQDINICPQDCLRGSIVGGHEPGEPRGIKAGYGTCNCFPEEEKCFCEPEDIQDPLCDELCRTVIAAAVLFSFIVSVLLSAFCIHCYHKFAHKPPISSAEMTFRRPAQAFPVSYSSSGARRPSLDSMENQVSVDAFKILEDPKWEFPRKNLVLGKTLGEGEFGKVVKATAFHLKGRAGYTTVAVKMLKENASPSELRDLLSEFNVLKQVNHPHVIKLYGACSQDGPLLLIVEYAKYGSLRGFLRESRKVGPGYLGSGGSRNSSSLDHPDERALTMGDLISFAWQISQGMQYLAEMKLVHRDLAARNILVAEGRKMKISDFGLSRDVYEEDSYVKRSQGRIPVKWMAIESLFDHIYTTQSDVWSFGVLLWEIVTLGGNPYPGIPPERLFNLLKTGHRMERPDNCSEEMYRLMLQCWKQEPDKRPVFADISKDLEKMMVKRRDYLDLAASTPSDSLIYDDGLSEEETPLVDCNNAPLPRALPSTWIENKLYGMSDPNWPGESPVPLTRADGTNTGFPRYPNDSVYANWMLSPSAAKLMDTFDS
Dual specificity tyrosine-phosphorylation-regulated kinase 3, sequence (O43781 whole entry): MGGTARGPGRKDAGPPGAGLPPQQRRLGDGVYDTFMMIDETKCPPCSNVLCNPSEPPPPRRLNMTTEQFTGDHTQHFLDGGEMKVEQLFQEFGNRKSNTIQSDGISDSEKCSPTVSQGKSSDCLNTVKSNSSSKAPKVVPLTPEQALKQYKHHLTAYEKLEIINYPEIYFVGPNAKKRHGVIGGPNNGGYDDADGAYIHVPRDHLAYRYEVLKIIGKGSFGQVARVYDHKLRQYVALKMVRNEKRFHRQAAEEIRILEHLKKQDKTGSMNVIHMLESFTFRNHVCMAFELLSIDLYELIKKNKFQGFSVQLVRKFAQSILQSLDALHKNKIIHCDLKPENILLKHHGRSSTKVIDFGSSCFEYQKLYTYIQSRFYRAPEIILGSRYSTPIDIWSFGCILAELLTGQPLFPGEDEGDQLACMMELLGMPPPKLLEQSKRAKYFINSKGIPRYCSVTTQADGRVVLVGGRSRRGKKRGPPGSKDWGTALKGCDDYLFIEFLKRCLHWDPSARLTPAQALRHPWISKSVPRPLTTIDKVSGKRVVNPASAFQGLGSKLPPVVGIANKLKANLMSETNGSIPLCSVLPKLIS
Serine/threonine-protein kinase pim-2, sequence (Q9P1W9 whole entry): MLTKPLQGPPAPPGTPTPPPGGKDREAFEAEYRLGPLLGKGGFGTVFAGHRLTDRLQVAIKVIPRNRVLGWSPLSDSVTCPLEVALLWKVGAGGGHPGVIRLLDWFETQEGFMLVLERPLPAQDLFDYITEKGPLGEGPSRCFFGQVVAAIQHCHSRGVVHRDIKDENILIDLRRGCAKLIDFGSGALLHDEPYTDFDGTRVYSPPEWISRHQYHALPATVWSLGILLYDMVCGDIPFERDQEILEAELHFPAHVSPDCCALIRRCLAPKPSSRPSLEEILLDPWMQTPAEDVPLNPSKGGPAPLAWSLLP
Tyrosine-protein kinase Fyn, sequence (P06241 whole entry): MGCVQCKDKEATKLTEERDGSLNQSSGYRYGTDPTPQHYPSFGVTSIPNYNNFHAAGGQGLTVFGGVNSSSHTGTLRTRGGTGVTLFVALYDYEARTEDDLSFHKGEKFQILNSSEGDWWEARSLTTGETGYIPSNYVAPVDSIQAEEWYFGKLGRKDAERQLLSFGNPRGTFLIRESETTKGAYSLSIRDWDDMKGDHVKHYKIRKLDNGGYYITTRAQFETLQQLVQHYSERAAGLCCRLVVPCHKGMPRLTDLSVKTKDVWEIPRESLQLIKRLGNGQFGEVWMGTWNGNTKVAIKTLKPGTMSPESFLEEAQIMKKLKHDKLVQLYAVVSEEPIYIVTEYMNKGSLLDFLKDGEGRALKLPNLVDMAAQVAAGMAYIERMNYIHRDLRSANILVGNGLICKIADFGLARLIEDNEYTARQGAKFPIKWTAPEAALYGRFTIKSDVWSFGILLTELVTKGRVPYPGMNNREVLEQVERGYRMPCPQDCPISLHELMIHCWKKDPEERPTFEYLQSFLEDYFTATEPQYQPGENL

Turning to `CCC(C)n1c(NC(=O)c2ccccc2)c(C#N)c2nc3ccccc3nc21` (stereo not given), the CC50 in experiment [1] is 28.1 µM (active).

With `CCN1/C(=C\c2ccc3ccccc3[n+]2CC)Sc2cc(C)ccc21`, in [2], the EC50 is reported as > 12 µM (not active).

As to `CCCCCCCCCCOC(=O)C[n+]1c(COc2ccc(C)cc2)n(C)c2ccccc21`, the EC50 was > 6.08 µM (active) on Insulin-degrading enzyme and 7.92 µM (active) in the experiment with Streptococcus.

Consider `CC[C@@H](CO)NC(=O)[C@@H]1C=C2c3cccc4c3c(cn4C)C[C@H]2N(C)C1` [METHYSERGIDE MALEATE], for which the IC50 at Bcl-2-like protein 1 is 22.6 µM (not active).

Regarding `CN1CCN(c2nc(C3=C(c4c[nH]c5ccccc45)C(=O)NC3=O)c3ccccc3n2)CC1` [SOTRASTAURIN], the Ki was 0.00158 µM (active) in experiment [3]; 0.00794 µM (active) on Misshapen-like kinase 1; > 3.16 µM (inactive) in experiment [4]; > 1.58 µM (inactive) in experiment [5]; > 3.98 µM (inactive) in experiment [6]; > 10 µM (inactive) in experiment [7]. Also, the Ki is 6.31 µM (active) in experiment [8]; > 2 µM (inactive) in experiment [9]; 0.158 µM (active) in experiment [10]; > 2 µM (inactive) in [11]; > 3.98 µM (inactive) in [12]; > 7.94 µM (inactive) in [13]. Further, the Ki on SRSF protein kinase 1 is > 7.94 µM (inactive); in experiment [14] it was > 6.31 µM (inactive); in experiment [15] it was > 10 µM (inactive).
